From the kinase profiling compilation of Christmann-Franck et al. (2016)

Assays:
Test in all cases: KINOMEscan competition binding
Conditions in all cases: compound 10.0 µM
MAPK14 (human) = MAPK14 (human) (UniProt Q16539)
[1] = test system: KIT (human), P10721 [D816H]
FER (human) = FER (human) (UniProt P16591)
PIP5K1A (human) = PIP5K1A (human) (UniProt Q99755)
NEK6 (human) = NEK6 (human) (UniProt Q9HC98)
CAMK2A (human) = CAMK2A (human) (UniProt Q9UQM7)
MAPK11 (human) = MAPK11 (human) (UniProt Q15759)
NEK1 (human) = NEK1 (human) (UniProt Q96PY6)
DDR2 (human) = DDR2 (human) (UniProt Q16832)
PKN2 (human) = PKN2 (human) (UniProt Q16513)
MAPK13 (human) = MAPK13 (human) (UniProt O15264)
LATS2 (human) = LATS2 (human) (UniProt Q9NRM7)
FRK (human) = FRK (human) (UniProt P42685)
MAP2K6 (human) = MAP2K6 (human) (UniProt P52564)
AKT1 (human) = AKT1 (human) (UniProt P31749)
CAMK1D (human) = CAMK1D (human) (UniProt Q8IU85)
TGFBR1 (human) = TGFBR1 (human) (UniProt P36897)
[2] = test system: MET (human), P08581 [M1250T]
STK3 (human) = STK3 (human) (UniProt Q13188)
MERTK (human) = MERTK (human) (UniProt Q12866)
TIE1 (human) = TIE1 (human) (UniProt P35590)
EPHA1 (human) = EPHA1 (human) (UniProt P21709)
MYLK (human) = MYLK (human) (UniProt Q15746)
ITK (human) = ITK (human) (UniProt Q08881)
EPHA8 (human) = EPHA8 (human) (UniProt P29322)
LATS1 (human) = LATS1 (human) (UniProt O95835)
PRKG1 (human) = PRKG1 (human) (UniProt Q13976)
RPS6KB1 (human) = RPS6KB1 (human) (UniProt P23443)
ERBB4 (human) = ERBB4 (human) (UniProt Q15303)
MAK (human) = MAK (human) (UniProt P20794)
VRK2 (human) = VRK2 (human) (UniProt Q86Y07)
EIF2AK2 (human) = EIF2AK2 (human) (UniProt P19525)
PRKCH (human) = PRKCH (human) (UniProt P24723)
ULK1 (human) = ULK1 (human) (UniProt O75385)
MUSK (human) = MUSK (human) (UniProt O15146)
TNK2 (human) = TNK2 (human) (UniProt Q07912)
[3] = test system: EGFR (human), P00533 [A750P; 747-749 del]
GAK (human) = GAK (human) (UniProt O14976)
STK16 (human) = STK16 (human) (UniProt O75716)
KIT (human) = KIT (human) (UniProt P10721)

Chain of PIP5K1A (human) (Q99755 whole entry, looked up): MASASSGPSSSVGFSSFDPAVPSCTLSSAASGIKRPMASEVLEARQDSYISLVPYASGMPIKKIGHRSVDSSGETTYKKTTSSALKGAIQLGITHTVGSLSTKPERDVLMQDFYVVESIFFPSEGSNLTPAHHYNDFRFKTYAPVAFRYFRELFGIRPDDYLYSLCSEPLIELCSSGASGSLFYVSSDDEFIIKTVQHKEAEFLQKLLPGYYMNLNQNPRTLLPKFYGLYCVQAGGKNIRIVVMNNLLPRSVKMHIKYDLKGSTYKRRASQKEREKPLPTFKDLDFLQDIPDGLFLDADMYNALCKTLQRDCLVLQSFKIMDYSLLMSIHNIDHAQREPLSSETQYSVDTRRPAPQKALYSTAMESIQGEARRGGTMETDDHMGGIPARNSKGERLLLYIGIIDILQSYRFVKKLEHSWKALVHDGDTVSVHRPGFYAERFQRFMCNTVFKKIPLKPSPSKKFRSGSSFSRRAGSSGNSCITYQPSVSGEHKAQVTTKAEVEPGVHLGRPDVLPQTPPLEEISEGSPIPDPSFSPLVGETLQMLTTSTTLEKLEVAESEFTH
Chain of LATS2 (human) (Q9NRM7 whole entry, looked up): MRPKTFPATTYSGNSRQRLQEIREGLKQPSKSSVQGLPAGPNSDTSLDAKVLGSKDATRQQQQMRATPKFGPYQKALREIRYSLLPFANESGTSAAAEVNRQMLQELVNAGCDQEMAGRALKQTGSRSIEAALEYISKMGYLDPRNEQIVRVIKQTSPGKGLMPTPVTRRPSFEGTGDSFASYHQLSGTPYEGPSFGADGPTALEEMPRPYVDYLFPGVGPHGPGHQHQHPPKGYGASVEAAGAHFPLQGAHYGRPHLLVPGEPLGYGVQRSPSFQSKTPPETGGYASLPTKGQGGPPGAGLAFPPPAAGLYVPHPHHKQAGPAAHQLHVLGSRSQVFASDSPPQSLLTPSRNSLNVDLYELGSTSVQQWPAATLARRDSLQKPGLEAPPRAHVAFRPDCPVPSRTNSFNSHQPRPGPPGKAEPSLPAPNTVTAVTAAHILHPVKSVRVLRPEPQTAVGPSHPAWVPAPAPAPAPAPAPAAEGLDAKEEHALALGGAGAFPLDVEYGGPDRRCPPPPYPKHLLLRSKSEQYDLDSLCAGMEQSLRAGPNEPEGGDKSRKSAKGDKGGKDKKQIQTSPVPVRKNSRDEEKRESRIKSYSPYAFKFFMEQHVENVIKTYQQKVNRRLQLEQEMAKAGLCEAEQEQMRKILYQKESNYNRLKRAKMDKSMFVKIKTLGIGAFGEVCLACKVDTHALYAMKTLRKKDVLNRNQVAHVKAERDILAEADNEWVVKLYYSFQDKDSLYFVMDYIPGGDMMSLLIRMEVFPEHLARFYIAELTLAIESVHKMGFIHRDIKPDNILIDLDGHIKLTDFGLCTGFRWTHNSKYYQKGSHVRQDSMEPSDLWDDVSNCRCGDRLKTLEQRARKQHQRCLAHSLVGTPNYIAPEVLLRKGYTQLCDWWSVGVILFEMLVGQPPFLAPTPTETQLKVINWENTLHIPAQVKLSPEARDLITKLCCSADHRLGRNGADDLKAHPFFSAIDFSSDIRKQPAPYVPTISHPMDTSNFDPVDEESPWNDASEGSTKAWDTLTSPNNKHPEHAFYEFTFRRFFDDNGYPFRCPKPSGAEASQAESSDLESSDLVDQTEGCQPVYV
Chain of PRKCH (human) (P24723 whole entry, looked up): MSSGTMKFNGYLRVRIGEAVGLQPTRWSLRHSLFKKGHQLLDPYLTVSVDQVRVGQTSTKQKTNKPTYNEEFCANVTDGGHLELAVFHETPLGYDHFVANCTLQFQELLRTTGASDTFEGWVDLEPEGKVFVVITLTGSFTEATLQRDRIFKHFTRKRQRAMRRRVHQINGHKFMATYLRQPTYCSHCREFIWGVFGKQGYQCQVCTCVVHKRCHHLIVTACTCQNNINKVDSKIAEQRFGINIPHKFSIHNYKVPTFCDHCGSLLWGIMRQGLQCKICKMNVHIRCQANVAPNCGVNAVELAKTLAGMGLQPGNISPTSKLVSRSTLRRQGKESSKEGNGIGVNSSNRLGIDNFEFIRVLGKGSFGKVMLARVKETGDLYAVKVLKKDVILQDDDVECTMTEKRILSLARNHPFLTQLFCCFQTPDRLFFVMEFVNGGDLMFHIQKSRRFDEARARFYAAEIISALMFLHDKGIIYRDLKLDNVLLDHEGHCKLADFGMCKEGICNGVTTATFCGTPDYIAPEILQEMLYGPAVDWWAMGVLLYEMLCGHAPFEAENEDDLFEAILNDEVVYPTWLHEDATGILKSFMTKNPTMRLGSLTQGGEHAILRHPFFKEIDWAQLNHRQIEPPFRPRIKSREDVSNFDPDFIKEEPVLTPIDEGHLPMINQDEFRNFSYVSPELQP
Chain of MAK (human) (P20794 whole entry, looked up): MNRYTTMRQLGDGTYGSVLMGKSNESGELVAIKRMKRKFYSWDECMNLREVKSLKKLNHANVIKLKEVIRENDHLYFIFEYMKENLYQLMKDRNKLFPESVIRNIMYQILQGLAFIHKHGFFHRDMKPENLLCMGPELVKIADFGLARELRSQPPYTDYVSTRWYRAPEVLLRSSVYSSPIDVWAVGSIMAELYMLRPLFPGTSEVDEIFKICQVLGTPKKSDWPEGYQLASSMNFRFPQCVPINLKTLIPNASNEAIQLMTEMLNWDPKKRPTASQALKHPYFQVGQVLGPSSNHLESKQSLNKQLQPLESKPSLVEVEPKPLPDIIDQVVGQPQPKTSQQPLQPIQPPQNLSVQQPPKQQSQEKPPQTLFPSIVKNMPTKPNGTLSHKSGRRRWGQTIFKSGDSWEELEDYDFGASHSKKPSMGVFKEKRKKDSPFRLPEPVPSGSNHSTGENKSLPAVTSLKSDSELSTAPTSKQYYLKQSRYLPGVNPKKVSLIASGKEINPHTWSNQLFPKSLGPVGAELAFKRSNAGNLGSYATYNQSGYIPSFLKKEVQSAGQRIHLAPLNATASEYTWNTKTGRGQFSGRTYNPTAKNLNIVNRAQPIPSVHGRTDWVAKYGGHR
Chain of ITK (human) (Q08881 whole entry, looked up): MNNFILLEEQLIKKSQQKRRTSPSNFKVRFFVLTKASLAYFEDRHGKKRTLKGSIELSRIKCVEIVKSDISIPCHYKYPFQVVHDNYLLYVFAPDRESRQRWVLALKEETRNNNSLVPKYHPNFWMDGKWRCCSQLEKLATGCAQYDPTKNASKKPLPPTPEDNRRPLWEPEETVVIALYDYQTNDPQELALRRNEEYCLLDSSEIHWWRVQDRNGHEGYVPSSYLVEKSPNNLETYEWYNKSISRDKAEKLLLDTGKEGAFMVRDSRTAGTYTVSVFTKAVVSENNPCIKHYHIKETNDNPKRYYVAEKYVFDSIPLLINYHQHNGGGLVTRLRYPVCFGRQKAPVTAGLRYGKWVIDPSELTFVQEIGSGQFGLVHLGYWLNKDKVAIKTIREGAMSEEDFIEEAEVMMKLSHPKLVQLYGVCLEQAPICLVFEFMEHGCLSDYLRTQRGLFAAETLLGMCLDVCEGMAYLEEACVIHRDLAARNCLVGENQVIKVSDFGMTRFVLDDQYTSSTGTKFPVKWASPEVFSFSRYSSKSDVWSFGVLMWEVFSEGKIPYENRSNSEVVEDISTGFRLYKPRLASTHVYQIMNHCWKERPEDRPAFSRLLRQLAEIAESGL
Chain of MERTK (human) (Q12866 whole entry, looked up): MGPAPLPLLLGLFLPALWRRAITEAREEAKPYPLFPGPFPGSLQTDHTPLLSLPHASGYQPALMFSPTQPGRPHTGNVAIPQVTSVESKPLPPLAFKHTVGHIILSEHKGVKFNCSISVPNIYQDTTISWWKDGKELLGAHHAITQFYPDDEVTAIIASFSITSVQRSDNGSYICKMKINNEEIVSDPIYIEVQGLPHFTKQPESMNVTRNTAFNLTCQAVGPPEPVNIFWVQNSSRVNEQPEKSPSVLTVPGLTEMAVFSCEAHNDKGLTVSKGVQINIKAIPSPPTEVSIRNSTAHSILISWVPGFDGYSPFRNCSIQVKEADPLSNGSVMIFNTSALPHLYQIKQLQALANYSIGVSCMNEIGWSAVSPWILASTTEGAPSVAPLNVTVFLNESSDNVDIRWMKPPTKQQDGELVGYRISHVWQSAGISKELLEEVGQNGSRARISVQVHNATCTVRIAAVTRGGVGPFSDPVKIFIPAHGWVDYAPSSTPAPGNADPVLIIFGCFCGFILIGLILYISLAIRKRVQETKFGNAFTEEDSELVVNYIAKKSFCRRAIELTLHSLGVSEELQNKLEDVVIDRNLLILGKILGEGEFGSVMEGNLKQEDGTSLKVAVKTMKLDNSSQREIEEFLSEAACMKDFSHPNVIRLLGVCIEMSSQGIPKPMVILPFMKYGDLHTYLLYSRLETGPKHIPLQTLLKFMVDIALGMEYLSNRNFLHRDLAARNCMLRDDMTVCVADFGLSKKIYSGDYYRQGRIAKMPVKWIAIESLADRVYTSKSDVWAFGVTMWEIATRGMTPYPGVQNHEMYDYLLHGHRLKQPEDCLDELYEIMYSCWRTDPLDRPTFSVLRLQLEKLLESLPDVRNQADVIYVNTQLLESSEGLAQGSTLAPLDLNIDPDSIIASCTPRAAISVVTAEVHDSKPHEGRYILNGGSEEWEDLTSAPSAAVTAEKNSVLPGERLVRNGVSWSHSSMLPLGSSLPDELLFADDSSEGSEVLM
Chain of MAP2K6 (human) (P52564 whole entry, looked up): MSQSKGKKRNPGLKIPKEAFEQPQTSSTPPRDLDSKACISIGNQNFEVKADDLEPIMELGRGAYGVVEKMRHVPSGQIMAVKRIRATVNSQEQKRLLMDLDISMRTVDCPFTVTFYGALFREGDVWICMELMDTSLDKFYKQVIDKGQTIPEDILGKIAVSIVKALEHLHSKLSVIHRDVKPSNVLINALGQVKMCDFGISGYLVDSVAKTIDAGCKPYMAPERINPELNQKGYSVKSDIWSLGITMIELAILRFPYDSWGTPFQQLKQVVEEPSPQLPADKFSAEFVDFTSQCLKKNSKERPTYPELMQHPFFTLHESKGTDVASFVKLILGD

Row | Compound | kinase still bound, per cent of control (MAPK14 (human)) [%] | kinase still bound, per cent of control [1] [%] | kinase still bound, per cent of control (FER (human)) [%] | kinase still bound, per cent of control (PIP5K1A (human)) [%] | kinase still bound, per cent of control (CAMK2A (human)) [%] | kinase still bound, per cent of control (MAPK11 (human)) [%] | kinase still bound, per cent of control (DDR2 (human)) [%] | kinase still bound, per cent of control (PKN2 (human)) [%] | kinase still bound, per cent of control (LATS2 (human)) [%] | kinase still bound, per cent of control (FRK (human)) [%] | kinase still bound, per cent of control (MAP2K6 (human)) [%] | kinase still bound, per cent of control (AKT1 (human)) [%] | kinase still bound, per cent of control (CAMK1D (human)) [%] | kinase still bound, per cent of control (TGFBR1 (human)) [%] | kinase still bound, per cent of control [2] [%] | kinase still bound, per cent of control (STK3 (human)) [%] | kinase still bound, per cent of control (MERTK (human)) [%] | kinase still bound, per cent of control (EPHA1 (human)) [%] | kinase still bound, per cent of control (MYLK (human)) [%] | kinase still bound, per cent of control (ITK (human)) [%] | other results
1 | COc1cc2ncnc(Nc3cccc(Cl)c3)c2cc1OC | 63 | 59 | 82 | 93 | 62 | 57 | 42 | 59 | 40 | 29 | 95 | 100 | 83 | 88 | 94 | 91 | 71 | 43 | 18 | 100 | kinase still bound, per cent of control (NEK6 (human)): 100%; kinase still bound, per cent of control (NEK1 (human)): 77%; kinase still bound, per cent of control (MAPK13 (human)): 100%; kinase still bound, per cent of control (TIE1 (human)): 71%; kinase still bound, per cent of control (EPHA8 (human)): 38%; kinase still bound, per cent of control (LATS1 (human)): 100%; kinase still bound, per cent of control (PRKG1 (human)): 100%; kinase still bound, per cent of control (RPS6KB1 (human)): 63%; kinase still bound, per cent of control (ERBB4 (human)): 3.5%; kinase still bound, per cent of control (MAK (human)): 100%; kinase still bound, per cent of control (VRK2 (human)): 35%; kinase still bound, per cent of control (EIF2AK2 (human)): 52%; kinase still bound, per cent of control (PRKCH (human)): 100%; kinase still bound, per cent of control (ULK1 (human)): 75%; kinase still bound, per cent of control (MUSK (human)): 100%; kinase still bound, per cent of control (TNK2 (human)): 61%; kinase still bound, per cent of control [3]: 1.4%; kinase still bound, per cent of control (GAK (human)): 0%; kinase still bound, per cent of control (STK16 (human)): 97%
2 | CCN(CCO)CCCOc1ccc2c(Nc3cc(CC(=O)Nc4cccc(F)c4)[nH]n3)ncnc2c1 | 100 | 34 | 100 | 73 | 78 | 100 | 27 | 86 | 52 | 90 | 99 | 96 | 83 | 98 | 52 | 100 | 77 | 100 | 80 | 96 | kinase still bound, per cent of control (KIT (human)): 0%; kinase still bound, per cent of control (EPHA8 (human)): 90%; kinase still bound, per cent of control (LATS1 (human)): 100%; kinase still bound, per cent of control (RPS6KB1 (human)): 13%; kinase still bound, per cent of control (ERBB4 (human)): 4%; kinase still bound, per cent of control (MAK (human)): 92%; kinase still bound, per cent of control (VRK2 (human)): 100%; kinase still bound, per cent of control (EIF2AK2 (human)): 100%; kinase still bound, per cent of control (PRKCH (human)): 100%; kinase still bound, per cent of control (ULK1 (human)): 76%; kinase still bound, per cent of control (MUSK (human)): 3.3%; kinase still bound, per cent of control (TNK2 (human)): 100%; kinase still bound, per cent of control (GAK (human)): 21%; kinase still bound, per cent of control (STK16 (human)): 100%
